Tests used:
[1] = tested on: MRC-5 normal embryonic lung fibroblast cell line; assay: Cytotoxic activity assay (MTT), normal cells; format: cell-based; conditions: Homo sapiens, MRC5, 48 h exposure, read-out: Cell lines, IC50 (μM) MRC-5
Text: (§1) The synthetic compounds were screened for their cytotoxic activity using standard MTT or XTT methods[30] against a panel of nine human cancer cell lines and one normal cell line, including MDA-MB-231 (triple-negative breast cancer), T-47D (hormone-dependent breast cancer), HepG2 (hepatocellular carcinoma), A549 (lung adenocarcinoma), H69AR (multidrug-resistant small cell lung carcinoma), HuCCA-1 (cholangiocarcinoma derived from a patient), HeLa (cervical carcinoma), and two leukemia cell lines, HL-60 (acute promyelocytic leukemia) and MOLT-3 (T cell acute lymphoblastic leukemia). MRC-5 normal embryonic lung fibroblast cell line was used to represent normal cells. Chemotherapeutic drugs, doxorubicin and etoposide, were used as positive controls.
(§2) The cells were seeded into 96-well plates (100 µL for adherent cells and 75 µL for suspended cells) at a density of 5000–20,000 cells per well, depending on their growth rates. Adherent and suspended cells were then allowed to grow at 37 °C with 95% humidity and 5% CO2 for 24 h and 30 min, respectively. The cytotoxicity assay was initiated by adding an equal volume of cell culture medium containing tested compound at predetermined concentrations. Following 48 h of exposure, cell viability was determined using MTT assay for adherent cells[51],[52]or XTT assay for suspeended cells. Briefly, for adherent cells, 100 µL of the MTT reagent was added to each well, and the microtiter plates were further incubated for 2.5–4 h. The medium was subsequently replaced with 100 µL of DMSO to dissolve the purple formazan before the absorbance at 550 nm was measured using a microplate reader (a SpectraMax Plus 384) with a reference wavelength of 650 nm. For suspended cells, 75 µL of the XTT reagent was added to each well, and the cells were further incubated for 4 h. Afterwards, the absorbance of orange formazan at 492 nm was measured with a reference wavelength of 690 nm using a microplate reader.

[2] = tested on: HeLa (cervical carcinoma); assay: Cytotoxic activity assay (MTT); format: cell-based, human; conditions: for IC50: Homo sapiens, 48 h exposure, MTT, read-out: Cell lines, IC50 (μM) HeLa; for Selectivity Index (SI) values HeLa: SI = IC50 normal cell (MRC-5)/ IC50 cancer cell
Text: as §1, §2

[3] = tested on: A549 (lung adenocarcinoma); assay: Cytotoxic activity assay (MTT); format: cell-based, human; conditions: for IC50: Homo sapiens, A549, 48 h exposure, MTT, read-out: Cell lines, IC50 (μM) A549; for Selectivity Index (SI) values A549: SI = IC50 normal cell (MRC-5)/ IC50 cancer cell
Text: as §1, §2

[4] = tested on: T-47D (hormone-dependent breast cancer); assay: Cytotoxic activity assay (MTT); format: cell-based, human; conditions: for IC50: Homo sapiens, T47D, 48 h exposure, MTT, read-out: Cell lines, IC50 (μM) T47-D; for Selectivity Index (SI) values T47-D: SI = IC50 normal cell (MRC-5)/ IC50 cancer cell
Text: as §1, §2

[5] = tested on: MDA-MB-231 (triple-negative breast cancer); assay: Cytotoxic activity assay (MTT); format: cell-based, human; conditions: for IC50: Homo sapiens, MDA-MB-231, 48 h exposure, MTT, read-out: Cell lines, IC50 (μM) MDA-MB-231; for Selectivity Index (SI) values MDA-MB-231: SI = IC50 normal cell (MRC-5)/ IC50 cancer cell
Text: as §1, §2

[6] = tested on: HepG2 (hepatocellular carcinoma); assay: Cytotoxic activity assay (MTT); format: cell-based, human; conditions: for IC50: Homo sapiens, HepG2, 48 h exposure, MTT, read-out: Cell lines, IC50 (μM) HepG2; for Selectivity Index (SI) values HepG2: SI = IC50 normal cell (MRC-5)/ IC50 cancer cell
Text: as §1, §2

[7] = tested on: H69AR (multidrug-resistant small cell lung carcinoma); assay: Cytotoxic activity assay (MTT); format: cell-based, human; conditions: for IC50: Homo sapiens, H69AR, 48 h exposure, MTT, read-out: Cell lines, IC50 (μM) H69AR; for Selectivity Index (SI) values H69AR: SI = IC50 normal cell (MRC-5)/ IC50 cancer cell
Text: as §1, §2

[8] = tested on: HuCCA-1 (cholangiocarcinoma derived from a patient); assay: Cytotoxic activity assay (MTT); format: cell-based, human; conditions: for IC50: Homo sapiens, HuCC-A1, 48 h exposure, MTT, read-out: Cell lines, IC50 (μM) HuCCA-1; for Selectivity Index (SI) values HuCCA-1: SI = IC50 normal cell (MRC-5)/ IC50 cancer cell
Text: as §1, §2

[9] = tested on: HL-60 (acute promyelocytic leukemia); assay: Cytotoxic activity assay (XTT); format: cell-based, human; conditions: for IC50: Homo sapiens, HL-60, 48 h exposure, XTT, read-out: Cell lines, IC50 (μM) HL-60; for Selectivity Index (SI) values HL-60: SI = IC50 normal cell (MRC-5)/ IC50 cancer cell
Text: as §1, §2

[10] = tested on: MOLT-3 (T cell acute lymphoblastic leukemia); assay: Cytotoxic activity assay (XTT); format: cell-based, human; conditions: for IC50: Homo sapiens, MOLT-3, 48 h exposure, XTT, read-out: Cell lines, IC50 (μM) MOLT-3; for Selectivity Index (SI) values MOLT-3: SI = IC50 normal cell (MRC-5)/ IC50 cancer cell
Text: as §1, §2

Compound | IC50 [1] | IC50 [2] | Selectivity Index (SI) values HeLa [2] | IC50 [3] | Selectivity Index (SI) values A549 [3] | IC50 [4] | Selectivity Index (SI) values T47-D [4] | IC50 [5] | Selectivity Index (SI) values MDA-MB-231 [5] | IC50 [6] | Selectivity Index (SI) values HepG2 [6] | IC50 [7] | Selectivity Index (SI) values H69AR [7] | IC50 [8] | Selectivity Index (SI) values HuCCA-1 [8] | IC50 [9] | Selectivity Index (SI) values HL-60 [9] | IC50 [10] | Selectivity Index (SI) values MOLT-3 [10]
C=C1CC[C@H]2C(C)(C)CCC[C@]2(C)[C@H]1CC/C(C)=C/C(=O)N1CCCCC1 [Compound 4n, (E)-3-Methyl-1-(piperidin-1-yl)-5-((1S,4aS,8aS)-5,5,8a-trimethyl-2-methylenedecahydronaphthalen-1-yl)pent-2-en-1-one] | 38.4 ± 1.2 µM | 38.91 ± 0.13 µM | 1.0 | 41.7 ± 1.43 µM | 0.9 | 73 ± 3.31 µM | 0.5 | 33.9 ± 1.93 µM | 1.1 | 32.2 ± 1.37 µM | 1.2 | 52.31 ± 0.42 µM | 0.7 | 41.25 ± 0.19 µM | 0.9 | 20.5 ± 0.5 µM | 1.9 | 21 ± 0.32 µM | 1.8
C=C1CCC2C(C)(C)CCCC2(C)C1CCC(C)=CC(=O)O (stereo not shown) [Compound 1, anticopalic acid] | > 120 µM | 145.2 ± 0.31 µM | 1.1 | 159.1 ± 0.78 µM | 1.0 | > 120 µM | 1.0 | > 120 µM | 1.0 | > 120 µM | 1.0 | > 120 µM | 1.0 | 157.1 ± 0.51 µM | 1.0 | 103 ± 10.7 µM | 1.6 | 66.02 ± 0.12 µM | 2.5
C=C1CC[C@H]2C(C)(C)CCC[C@]2(C)[C@H]1CC/C(C)=C/C(=O)NO [Compound 4j, (E)-N-Hydroxy-3-methyl-5-((1S,4aS,8aS)-5,5,8a-trimethyl-2-methylene-decahydronaphthalen-1-yl)pent-2-enamide] | > 120 µM | > 120 µM | 1.0 | > 120 µM | 1.0 | > 120 µM | 1.0 | > 120 µM | 1.0 | > 120 µM | 1.0 | > 120 µM | 1.0 | > 120 µM | 1.0 | > 120 µM | 1.0 | > 120 µM | 1.0
C=C1CC[C@H]2C(C)(C)CCC[C@]2(C)[C@H]1CC/C(C)=C/C(=O)NCC(=O)OC [Compound 4q, Methyl ((E)-3-methyl-5-((1S,4aS,8aS)-5,5,8a-trimethyl-2-methylenedeca-hydronaphthalen-1-yl)pent-2-enoyl)glycinate] | 65.29 ± 0.11 µM | 39.1 ± 0.78 µM | 1.7 | 43.8 ± 3.08 µM | 1.5 | 71.3 ± 2.07 µM | 0.9 | 46.2 ± 1.89 µM | 1.4 | 73.89 ± 0.3 µM | 0.9 | 61.4 ± 2.03 µM | 1.1 | 81.1 ± 2.42 µM | 0.8 | 26 ± 0.55 µM | 2.5 | 14.9 ± 0.32 µM | 4.4
